Experimental data as given in patent EP4772506A1, “COMPOUND FOR REGULATING ACTIVITY OF MICRORNA-124” (Jiangsu Chia Tai Fenghai Pharmaceutical Co., Ltd., priority 2023, dated 2025).
Marks after values point to notes of the source that are not given here.

Assays:
[1] = Pharmacokinetic study in beagle dogs (plasma, LC-MS/MS); type: in vivo
Description: The pharmacokinetic characteristics of test compound 45 was investigated in beagle dogs.
The gavage group was fasted for no less than 12 hours before administration, with free access to water. After 4 h of administration, the dogs were fed uniformly. […] The upper plasma layer was transferred and stored at -20°C until sample analysis. The concentration of the test compound in dog plasma was determined using the LC-MS/MS method. Pharmacokinetic parameters were fitted using WinNonlin software, and absolute bioavailability was calculated. Table 6. Pharmacokinetic parameters of compounds in beagle dogs

[2] = Pharmacokinetic study in rats (plasma, LC-MS/MS); details: for AUC(0-t) / MRT inf / half-life / Cmax / Tmax: rat, in vivo
Description: • (1) SD male rats were used as test animals.
The administration solvent was a physiological saline solution containing 10% DMSO + 10% polyoxyl castor oil (Cremophor EL). Fasting was maintained for approximately 12 hours prior to administration, and free feeding was allowed 4 hours post-administration, with no water restriction. […] After gently inverting the tube to fully mix the anticoagulant EDTA-K2 with the blood, the tube was immediately placed on wet ice. The plasma was separated by centrifugation immediately after blood collection under the following centrifugation conditions: 4°C, 3500 rpm, and 5 min. The upper plasma layer was transferred and stored at -80°C until sample analysis. […] The pharmacokinetic parameters were calculated from the sample analysis results using WinNonlin software.

miR124 = assay: Effect of the compound on miR124 upregulation in PBMCs (qPCR, U6 as internal reference); type: cell-based, human; details: miR-124 expression, 5 µM, 6 days, batches normalized
Description: The effect of test compounds on miR124 expression levels was evaluated in human peripheral blood mononuclear cells (PBMCs). […] Test compounds (final concentration: 5 µM) were added for treatment at 37°C, 5% CO2 for 6 days, with medium replacement on day 3. The control group was treated with an equal volume of DMSO under the same conditions.
RNA Extraction: On day 6, cells were collected in a 15 mL centrifuge tube and centrifuged at 400g for 10 min, followed by supernatant removal. […] The upper RNA layer was aspirated into a clean 1.5 mL centrifuge tube (RNase-free), an equal volume of isopropanol was added, and left at room temperature for 10 min to precipitate RNA. Centrifugation at 4°C and 12000g for 10 min yielded a small white pellet at the tube bottom.
Fluorescent quantitative PCR reaction: miRNA quantification was performed using SYBR Green I intercalating fluorescence method, with simultaneous detection of the housekeeping gene U6 transcript level as internal reference.

[3] = tested on: dextran sulfate sodium (DSS)-induced ulcerative colitis; assay: Preventive and therapeutic effects on DSS-induced ulcerative colitis (UC) in mice; type: in vivo, C57BL/6 mice; details: for relative body weight (% of initial): mean ± SEM; for Relative colon length (%): of the control group
Description: The preventive and therapeutic effects of the positive drug ABX464 and Compound 23 of the present disclosure on dextran sulfate sodium (DSS)-induced ulcerative colitis were evaluated using a DSS-induced ulcerative colitis (UC) model.
Female C57BL/6 mice (20-22 g) were randomly divided into 7 groups according to body weight after adaptive feeding, as shown in Table 4. On day 1, the mice were switched to 3% DSS feeding. After 10 days of DSS feeding, they were switched back to normal drinking water until day 13. From day 1 to day 13, the mice were continuously administered the corresponding solvents and drugs by gavage. Body weight changes were recorded daily from day 1 to day 13. On day 13, after recording body weight, the mice were dissected to measure colon length. The preventive and therapeutic effects of the test drug on ulcerative colitis in mice were evaluated based on relative body weight change rate and colon length. Table 4. Experimental animal grouping and model induction period

[4] = 6.25-50 mg/kg qd by gavage, overall conclusion
[5] = day 13, 6.25 mg/kg qd by gavage
[6] = day 13, 12.5 mg/kg qd by gavage

With FC(F)(F)Oc1ccc(Nc2ncc3c(N4CCOCC4)cc(Cl)cc3n2)cc1 [Compound 45] the F ([1]; absolute bioavailability, p.o. 6 mg/kg vs i.v. 1 mg/kg) was 10.7%, the AUC(0-t) ([1]; dog, in vivo, iv, i.v. 1mg/kg) was 1560 ng·h/mL and the MRT inf ([1]; dog, in vivo, iv, i.v. 1mg/kg) was 3.56 h. For the same compound, the half-life ([1]; dog, in vivo, iv, i.v. 1mg/kg) was 8.88 h, the AUC(0-t) ([1]; dog, in vivo, po, p.o. 6 mg/kg) was 990 ng·h/mL and the Cmax ([1]; dog, in vivo, po, p.o. 6 mg/kg) was 204 ng/mL. It also gave an MRT inf ([1]; dog, in vivo, po, p.o. 6 mg/kg) of 5.9 h, a Tmax ([1]; dog, in vivo, po, p.o. 6 mg/kg) of 2 h and a half-life ([1]; dog, in vivo, po, p.o. 6 mg/kg) of 7.18 h. It also gave an F ([2]; absolute bioavailability, SD male rats, p.o. 25 mg/kg vs i.v. 1 mg/kg) of 27.6%, an AUC(0-t) ([2]; iv, 1 mg/kg) of 1180 ng·h/mL and an MRT inf ([2]; iv, 1 mg/kg) of 1.5 h. It also gave a half-life ([2]; iv, 1 mg/kg) of 2.2 h, an AUC(0-t) ([2]; po, 25 mg/kg) of 8400 ng·h/mL and a Cmax ([2]; po, 25 mg/kg) of 2550 ng/mL. The MRT inf ([2]; po, 25 mg/kg) was 3.2 h, the Tmax ([2]; po, 25 mg/kg) was 2 h and the half-life ([2]; po, 25 mg/kg) was 5.4 h.
In the case of FC(F)(F)Oc1ccc(Nc2ncc3ccc(Cl)cc3n2)cc1 [Compound 23], the “Average fold change compared to DMSO treatment, Average value” (miR124) is reported as 6.54, the “effect on colon shortening in DSS-induced ulcerative colitis mice” value [3, 4] is reported as “good therapeutic effect on colon shortening” and the “effect on weight loss in DSS-induced ulcerative colitis mice” value [3, 4] is reported as “favorable restorative effect on weight loss”. For the same compound, the weight loss ([3]; by day 9, 50 mg/kg qd by gavage) was 3.09%, the weight loss ([3]; by day 10, 6.25 mg/kg qd by gavage) was 7.52% and the weight loss ([3]; by day 10, 12.5 mg/kg qd by gavage) was 8.99%. For the same compound, the weight loss ([3]; by day 10, 25 mg/kg qd by gavage) was 7.96%, the weight loss ([3]; by day 10, 50 mg/kg qd by gavage) was 3.8% and the “relative body weight (% of initial)” value ([3]; day 1, 6.25 mg/kg qd by gavage) was 100±0.00%. For the same compound, the “relative body weight (% of initial)” value ([3]; day 1, 12.5 mg/kg qd by gavage) was 100±0.00%, the “relative body weight (% of initial)” value ([3]; day 1, 25 mg/kg qd by gavage) was 100±0.00% and the “relative body weight (% of initial)” value ([3]; day 1, 50 mg/kg qd by gavage) was 100±0.00%. For the same compound, the “relative body weight (% of initial)” value ([3]; day 2, 6.25 mg/kg qd by gavage) was 101.5± 0.43%, the “relative body weight (% of initial)” value ([3]; day 2, 12.5 mg/kg qd by gavage) was 99.9±0.63% and the “relative body weight (% of initial)” value ([3]; day 2, 25 mg/kg qd by gavage) was 100.5± 0.37%. For the same compound, the “relative body weight (% of initial)” value ([3]; day 2, 50 mg/kg qd by gavage) was 99.1±0.65%, the “relative body weight (% of initial)” value ([3]; day 3, 6.25 mg/kg qd by gavage) was 102.4± 0.78% and the “relative body weight (% of initial)” value ([3]; day 3, 12.5 mg/kg qd by gavage) was 100.8± 0.67%. For the same compound, the “relative body weight (% of initial)” value ([3]; day 3, 25 mg/kg qd by gavage) was 101.1± 0.59%, the “relative body weight (% of initial)” value ([3]; day 3, 50 mg/kg qd by gavage) was 100.2±0.78% and the “relative body weight (% of initial)” value ([3]; day 4, 6.25 mg/kg qd by gavage) was 101.9± 1.02%. For the same compound, the “relative body weight (% of initial)” value ([3]; day 4, 12.5 mg/kg qd by gavage) was 99.9 ± 0.87%, the “relative body weight (% of initial)” value ([3]; day 4, 25 mg/kg qd by gavage) was 100.8± 0.44% and the “relative body weight (% of initial)” value ([3]; day 4, 50 mg/kg qd by gavage) was 100.0±0.74%. The “relative body weight (% of initial)” value ([3]; day 5, 6.25 mg/kg qd by gavage) was 101.7± 0.98%, the “relative body weight (% of initial)” value ([3]; day 5, 12.5 mg/kg qd by gavage) was 100.5± 0.88% and the “relative body weight (% of initial)” value ([3]; day 5, 25 mg/kg qd by gavage) was 99.8±0.61%. The “relative body weight (% of initial)” value ([3]; day 5, 50 mg/kg qd by gavage) was 100.7±1.01%, the “relative body weight (% of initial)” value ([3]; day 6, 6.25 mg/kg qd by gavage) was 100±0.97% and the “relative body weight (% of initial)” value ([3]; day 6, 12.5 mg/kg qd by gavage) was 97.4±0.87%. The “relative body weight (% of initial)” value ([3]; day 6, 25 mg/kg qd by gavage) was 97.5±0.81%, the “relative body weight (% of initial)” value ([3]; day 6, 50 mg/kg qd by gavage) was 98.0±1.15% and the “relative body weight (% of initial)” value ([3]; day 7, 6.25 mg/kg qd by gavage) was 96.4±1.18%. The “relative body weight (% of initial)” value ([3]; day 7, 12.5 mg/kg qd by gavage) was 95.0±1.12%, the “relative body weight (% of initial)” value ([3]; day 7, 25 mg/kg qd by gavage) was 95.3±0.98% and the “relative body weight (% of initial)” value ([3]; day 7, 50 mg/kg qd by gavage) was 96.9±1.03%. The “relative body weight (% of initial)” value ([3]; day 8, 6.25 mg/kg qd by gavage) was 94.4±1.50%, the “relative body weight (% of initial)” value ([3]; day 8, 12.5 mg/kg qd by gavage) was 92.7±1.28% and the “relative body weight (% of initial)” value ([3]; day 8, 25 mg/kg qd by gavage) was 93.7±1.43%. The “relative body weight (% of initial)” value ([3]; day 8, 50 mg/kg qd by gavage) was 96.7±1.20%, the “relative body weight (% of initial)” value ([3]; day 9, 6.25 mg/kg qd by gavage) was 93.4±1.75% and the “relative body weight (% of initial)” value ([3]; day 9, 12.5 mg/kg qd by gavage) was 92.7±1.55%. For the same compound, the “relative body weight (% of initial)” value ([3]; day 9, 25 mg/kg qd by gavage) was 92.6±2.25%, the “relative body weight (% of initial)” value ([3]; day 9, 50 mg/kg qd by gavage) was 96.9± 1.41 % and the “relative body weight (% of initial)” value ([3]; day 10, 6.25 mg/kg qd by gavage) was 92.5± 2.02 %. For the same compound, the “relative body weight (% of initial)” value ([3]; day 10, 12.5 mg/kg qd by gavage) was 91.0± 1.78 %, the “relative body weight (% of initial)” value ([3]; day 10, 25 mg/kg qd by gavage) was 92.0± 2.38 % and the “relative body weight (% of initial)” value ([3]; day 10, 50 mg/kg qd by gavage) was 96.2± 1.38 %. For the same compound, the “relative body weight (% of initial)” value ([3]; day 11, 6.25 mg/kg qd by gavage) was 92.4±2.22%, the “relative body weight (% of initial)” value ([3]; day 11, 12.5 mg/kg qd by gavage) was 91.9±1.91% and the “relative body weight (% of initial)” value ([3]; day 11, 25 mg/kg qd by gavage) was 94.6± 1.73 %. The “relative body weight (% of initial)” value ([3]; day 11, 50 mg/kg qd by gavage) was 96.6± 1.45 %, the “relative body weight (% of initial)” value ([3]; day 12, 6.25 mg/kg qd by gavage) was 92.7±2.19% and the “relative body weight (% of initial)” value ([3]; day 12, 12.5 mg/kg qd by gavage) was 92.1±1.17%. For the same compound, the “relative body weight (% of initial)” value ([3]; day 12, 25 mg/kg qd by gavage) was 93.5±1.57%, the “relative body weight (% of initial)” value ([3]; day 12, 50 mg/kg qd by gavage) was 96.5± 1.62 % and the Colon length Mean [3, 5] was 7.18 cm. For the same compound, the “relative body weight (% of initial)” value [3, 5] was 92.0±2.52%, the Colon length Mean [3, 6] was 7.85 cm and the “relative body weight (% of initial)” value [3, 6] was 92.1±1.17%. The Colon length Mean ([3]; day 13, 25 mg/kg qd by gavage) was 7.28 cm, the “relative body weight (% of initial)” value ([3]; day 13, 25 mg/kg qd by gavage) was 95.3±1.63% and the Colon length Mean ([3]; day 13, 50 mg/kg qd by gavage) was 8.27 cm. For the same compound, the “relative body weight (% of initial)” value ([3]; day 13, 50 mg/kg qd by gavage) was 96.5± 1.62 %, the “Relative colon length (%)” value ([3]; day 13, 6.25 mg/kg qd by gavage, 6.25 mg/kg) was 89.8### % and the “Relative colon length (%)” value ([3]; day 13, 6.25 mg/kg qd by gavage, listed as compound 23, 6.25 mg/kg) was 89.79%. For the same compound, the “Relative colon length (%)” value ([3]; day 13, 12.5 mg/kg qd by gavage, 12.5 mg/kg) was 98.1#### %, the “Relative colon length (%)” value ([3]; day 13, 12.5 mg/kg qd by gavage, listed as compound 23, 12.5 mg/kg) was 98.1% and the “Relative colon length (%)” value ([3]; day 13, 25 mg/kg qd by gavage, 25 mg/kg) was 90.9#### %. For the same compound, the “Relative colon length (%)” value ([3]; day 13, 25 mg/kg qd by gavage, listed as compound 23, 25 mg/kg) was 90.9%, the “Relative colon length (%)” value ([3]; day 13, 50 mg/kg qd by gavage, 50 mg/kg) was 103.4#### % and the “Relative colon length (%)” value ([3]; day 13, 50 mg/kg qd by gavage, listed as compound 23, 50 mg/kg) was 103.3%. For the same compound, the AUC(0-t) ([2]; po, 20 mg/kg) was 5060 ng·h/mL, the Cmax ([2]; po, 20 mg/kg) was 1850 ng/mL and the MRT inf ([2]; po, 20 mg/kg) was 2.2 h. It also gave a Tmax ([2]; po, 20 mg/kg) of 2 h and a half-life ([2]; po, 20 mg/kg) of 2.65 h.
